Test results from the NIST ThermoML archive (doi:10.1021/je900597n).

Test: xn = mol fraction of the nth substance listed
Settings: 101 kPa, Liquid

CCCN [propan-1-amine] + COC(C)(C)C
Settings	mass density, 288.15 K [kg/m3]	mass density, 293.15 K [kg/m3]	mass density, 298.15 K [kg/m3]	mass density, 303.15 K [kg/m3]	mass density, 308.15 K [kg/m3]	speed of sound, 288.15 K [m/s]	speed of sound, 293.15 K [m/s]	speed of sound, 298.15 K [m/s]	speed of sound, 303.15 K [m/s]	speed of sound, 308.15 K [m/s]
x2 = 0	725.08	719.859	714.586	709.269	703.911	1266.1	1242	1218	1194	1169.9
x2 = 0.0709	727.856	722.621	717.583	712.014	706.643	1251.4	1227.2	1203.1	1179.1	1155.3
x2 = 0.0971	729.03	723.784	718.729	713.152	707.762	1244	1220	1196	1172.2	1148.2
x2 = 0.2112	733	727.745	722.617	717.065	711.678	1214.4	1190.5	1166.5	1142.9	1119.1
x2 = 0.2915	734.914	729.567	724.408	718.869	713.452	1204.2	1180.3	1156.2	1132.6	1109
x2 = 0.3956	737.188	731.938	726.763	721.277	715.895	1174.4	1150.7	1127	1103.4	1079.8
x2 = 0.5551	740.109	734.863	729.642	724.214	718.801	1146	1122.5	1098.9	1075.4	1052.2
x2 = 0.7171	742.564	737.327	732.071	726.691	721.338	1120.6	1097.1	1073.7	1050.5	1027.3
x2 = 0.7747	743.456	738.22	732.941	727.578	722.269	1111.6	1088	1064.5	1041	1017.8
x2 = 0.8604	744.503	739.27	733.994	728.673	723.302	1101.2	1077.8	1054.2	1030.9	1007.5
x2 = 0.9268	745.6	740.382	735.117	729.806	724.452	1094.2	1070.7	1047.5	1024.2	1001.1
